# Experimental data: publication PMC2867821 (Molecular Cancer, 2010)
# Like-named read-outs stand apart in the source and are kept apart here. Residues, ends and D or L forms follow the SMILES beside them. *: point of attachment. Cbz = O=C(OCc1ccccc1)*; CH2F = FC*
# Assays:
# SK-MEL-110 [1] = test: RGDS anti-proliferative effect after pre-treatment with caspase inhibitor; assay type: cell-based, human; details: Z-VAD-FMK 50 μM, 2 h pre-treatment, then RGDS; p < 0.005 vs FGF-2 in the presence of Z-VAD-FMK
# SK-MEL-110 [2] = test: Proliferation of SK-MEL-110 on collagen-IV with FGF-2 (cell count); assay type: cell-based, human; details: 500 μg/ml, 48 h, FGF-2 10 ng/ml
# Experimental: Representative images are reported. […] Three independent experiments were performed.
# SK-MEL-110 [3] = test: Peptide internalization in SK-MEL-110 by FACS (PE-avidin); details: biotinylated peptide
# active caspase-3 = test: Caspase-3 activation by confocal microscopy; assay type: cell-based, human; details: 500 μg/ml, 48 h, FGF-2; anti-active caspase-3 antibody
# GST-Full length survivin = GST-Full length survivin (Homo sapiens, UniProt O15392); test: Solid phase assay, GST-fusion protein; assay type: binding; parameters: Full length survivin and both N-terminus (Met1-Gly99) or C-terminus (Lys90-Asp142) were PCR amplified and cloned; made in house; host or cells: E. coli BL21(DE3)pLysS
# Experimental: (§1) Three independent experiments were performed.
# (§2) Full length survivin and both N-terminus (Met1-Gly99) or C-terminus (Lys90-Asp142) were PCR amplified and cloned, using EcoRI and BamHI restriction sites, in pGex6P2 (GE Healthcare) for expression of GST fusion proteins in E. coli BL21(DE3)pLysS (PROMEGA, Southampton, United Kingdom).
# (§3) Briefly, microtiter plates (Costar, Cambridge, MA) were coated with 175 nM (100 μl/well) recombinant GST-fusion proteins diluted in AC7.5 buffer for 4 h at RT. […] After washing four times and incubation for 1 h at RT with 100 μl/well Vectastain-ABC Reagent (Vector Laboratories, Burlingame, CA), wells were stained with the ELISA Amplification System (Invitrogen, Carlsbad, CA) according to manufacturer's instructions and absorption at 495 nm (A495) was determined. Specific binding was computed by subtracting nonspecific from total binding at each concentration. Curve fit was carried out according to the following one-site specific bind equation (GraphPad Prism-4 software):(1) [drawing 1]
# (§4) where X is ligand concentration, Y is the specific binding, Bmax is the maximum specific binding in the same units as Y, Kd is the equilibrium binding constant, in the same units as X.
# [4] = target: T1, GST-C-terminus-survivin (Lys90-Asp142) (Homo sapiens, UniProt O15392); test: Solid phase assay, GST-fusion protein; assay type: binding
# T1 construct: C-terminus (Lys90-Asp142); made in house; host or cells: E. coli BL21(DE3)pLysS
# Experimental: as §1, §2, §3, §4
# SK-MEL-110 [5] = system: SK-MEL-110
# survivin = system: survivin; parameters: method as in PMID 17389612, PMID 18537980; details: wide range of tumor cells; cited from earlier work
# Experimental for SK-MEL-110 and HUVEC: Cytoplasmic lysates were spotted onto nitrocellulose, blocked with 5% milk in TPBS (0.1% Tween 20 in PBS) and incubated for 1 h at RT with a Vectastain ABC-peroxidase kit (Vector) followed by chemiluminescence reaction and exposure to Kodak film (Eastman Kodak). Interaction was quantified by densitometry (GS 710; Bio-Rad) and analyzed using the "Quantity one" software (Bio-Rad).
# Three independent experiments were carried out.
# T1 sequence (O15392 90-142): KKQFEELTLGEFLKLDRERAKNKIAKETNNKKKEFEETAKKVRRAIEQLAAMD
# Chain of GST-Full length survivin (O15392 whole entry, the tested form may be a part): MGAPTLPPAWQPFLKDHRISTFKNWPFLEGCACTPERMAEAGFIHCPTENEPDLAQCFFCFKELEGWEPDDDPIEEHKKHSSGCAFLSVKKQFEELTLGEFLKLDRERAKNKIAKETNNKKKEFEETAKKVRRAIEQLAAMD
compound,measurement,setting,value
COC(=O)C[C@H](NC(=O)[C@H](C)NC(=O)[C@@H](NC(=O)OCc1ccccc1)C(C)C)C(=O)CF [Z-VAD-FMK] (Cbz-Val-Ala-Asp(OMe)-CH2F),effect on RGDS anti-proliferative action,SK-MEL-110 [1],significantly abolished the RGDS anti-proliferative effect
"Arg-Gly-Glu-Ser [RGES, RGES as control (Sigma-Aldrich)]",anti-proliferative effect,SK-MEL-110 [2]; collagen-IV,no anti-proliferative effect
same,internalization relative to RGDS (less than RGDS),"SK-MEL-110 [3]; 24 h, RGES less than RGDS",25%
same,positive cells (internalization),"SK-MEL-110 [3]; 24 h incubation, PE-avidin, FACS, three independent experiments",about 30%
same,internalization kinetics,"SK-MEL-110 [3]; 2, 6, 16 and 24 h, FACS",internalized with slower kinetics
same,caspase-3 activation,active caspase-3,no effect on caspase-3 activation
"NC(N)=NCCC[C@H](N)C(=O)NCC(=O)N[C@@H](CC(=O)O)C(=O)N[C@@H](CO)C(=O)O [RGDS, Arg-Gly-Asp-Ser]",Kd,GST-Full length survivin,27.5 µM
same,internalization in melanoma cells vs HUVEC,SK-MEL-110 and HUVEC,markedly higher in melanoma cells vs HUVEC
same,inhibition of FGF-2-induced proliferation,"SK-MEL-110 [2]; collagen-IV 50 μg/ml, mean ± SD of 5 experiments in duplicate, RGDS p < 0.005",46 ± 16%
same,Kd,[4],30 µM
same,internalization kinetics,SK-MEL-110 [5],in a time-dependent manner
Cc1ccc(-c2cc(C(F)(F)F)nn2-c2ccc(S(N)(=O)=O)cc2)cc1 [colecoxib],survivin expression,survivin,down-regulate survivin expression
